Results: ChEMBL document CHEMBL4033685, “C21-steroidal pregnane sapogenins and their derivatives as anti-inflammatory agents” (Bioorg Med Chem, 2017)
Active and inactive are the calls of the source. The calls are words filed in the database; no cut-off is given here.

Tests used:
Toll-like receptor 4 [1] = molecular target: T1, Toll-like receptor 4 (Homo sapiens, UniProt O00206); experiment: Antagonist activity at TLR4 in human THP1 cells assessed as inhibition of LPS-stimulated IL-6 mRNA level at 10 uM after 16 hrs by RT-PCR method; assay type: cell-based
T1 sequence (O00206 whole entry): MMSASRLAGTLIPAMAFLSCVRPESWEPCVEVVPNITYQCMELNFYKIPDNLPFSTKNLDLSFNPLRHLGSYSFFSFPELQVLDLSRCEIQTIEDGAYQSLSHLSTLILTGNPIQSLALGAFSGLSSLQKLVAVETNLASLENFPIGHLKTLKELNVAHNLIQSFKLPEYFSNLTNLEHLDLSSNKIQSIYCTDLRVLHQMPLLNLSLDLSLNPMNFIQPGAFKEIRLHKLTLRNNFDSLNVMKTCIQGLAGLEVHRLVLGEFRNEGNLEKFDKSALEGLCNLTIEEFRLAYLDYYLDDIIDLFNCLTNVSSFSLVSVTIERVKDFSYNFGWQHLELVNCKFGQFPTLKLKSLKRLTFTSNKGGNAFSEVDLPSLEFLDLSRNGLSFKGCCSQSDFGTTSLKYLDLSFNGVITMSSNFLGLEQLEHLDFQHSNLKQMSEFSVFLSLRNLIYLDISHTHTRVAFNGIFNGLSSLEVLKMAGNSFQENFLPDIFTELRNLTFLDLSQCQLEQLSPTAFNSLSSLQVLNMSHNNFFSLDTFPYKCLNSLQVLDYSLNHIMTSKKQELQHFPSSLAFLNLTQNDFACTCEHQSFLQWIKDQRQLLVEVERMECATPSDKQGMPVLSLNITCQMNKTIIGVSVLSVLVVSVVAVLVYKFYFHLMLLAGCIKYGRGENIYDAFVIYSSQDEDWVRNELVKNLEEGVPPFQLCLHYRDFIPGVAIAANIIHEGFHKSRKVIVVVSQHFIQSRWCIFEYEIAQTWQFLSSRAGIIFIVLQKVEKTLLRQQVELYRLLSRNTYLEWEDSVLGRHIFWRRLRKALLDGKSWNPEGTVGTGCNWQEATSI

Toll-like receptor 4 [2] = molecular target: T1, Toll-like receptor 4; experiment: Antagonist activity at TLR4 in human THP1 cells assessed as inhibition of LPS-stimulated RANTES mRNA level at 10 uM after 16 hrs by RT-PCR method; assay type: cell-based
Homo sapiens = species on record: Homo sapiens; experiment: Inhibition of TNFalpha-stimulated NF-kB signaling pathway (unknown origin) expressed in human AD293 cells after 4 hrs by luciferase reporter gene assay; assay type: cell-based
Toll-like receptor 4 [3] = molecular target: T1, Toll-like receptor 4; experiment: Antagonist activity at TLR4 (unknown origin) expressed in human AD293 cells assessed as inhibition of LPS/ATP-stimulated TLR4/NF-kB signaling pathway after 16 hrs by luciferase reporter gene assay; assay type: cell-based
AD293 [4] = experiment: Cytotoxicity against human AD293 cells assessed as reduction in cell viability after 24 hrs by methylene blue dye based spectrophotometric method; conditions: ad293, 24 h
Toll-like receptor 4 [5] = molecular target: T1, Toll-like receptor 4; experiment: Antagonist activity at TLR4 (unknown origin) expressed in human AD293 cells assessed as inhibition of LPS/ATP-stimulated TLR4/NF-kB signaling pathway at 10 uM after 16 hrs by luciferase reporter gene assay; assay type: cell-based
AD293 [6] = experiment: Cytotoxicity against human AD293 cells assessed as reduction in cell viability at 10 uM after 24 hrs by methylene blue dye based spectrophotometric method; conditions: ad293, 24 h

Structure (SMILES): CC(=O)O[C@H]1CC[C@@]2(C)C(=CC[C@]3(O)[C@@H]2C[C@@H](OC(=O)c2ccc(O)cc2)[C@@]2(C)[C@]3(O)CC[C@@]2(O)C(C)=O)C1
- inhibition (Toll-like receptor 4 [1]): inactive
- inhibition (Toll-like receptor 4 [2]): inactive

Structure (SMILES): CC(=O)[C@]1(O)CC[C@@]2(O)[C@]1(C)[C@H](OC(=O)c1ccccc1)C[C@@H]1[C@@]3(C)CC[C@H](O)CC3=CC[C@]12O
- inhibition (Toll-like receptor 4 [1]): inactive
- inhibition (Toll-like receptor 4 [2]): inactive

Structure (SMILES): CC(=O)[C@]1(O)CC[C@@]2(O)[C@]1(C)[C@H](OC(=O)/C=C(\C)C(C)C)C[C@@H]1[C@@]3(C)CCC(=O)CC3=CC[C@]12O
- EC10 (Homo sapiens): > 10 µM
- EC50 (Toll-like receptor 4 [3]): 11.7 µM
- EC10 (AD293 [4]): > 10 µM

Structure (SMILES): CC(=O)[C@]1(O)CC[C@@]2(O)[C@]1(C)[C@H](OC(=O)/C=C(\C)C(C)C)C[C@@H]1[C@@]3(C)CC[C@H](OC(=O)c4ccc(Cl)nc4)CC3=CC[C@]12O
- inhibition (Toll-like receptor 4 [1]): inactive
- inhibition (Toll-like receptor 4 [2]): inactive

Structure (SMILES): CC(=O)[C@]1(OC(=O)c2ccccc2I)CC[C@@]2(O)[C@]1(C)[C@H](OC(=O)c1ccc(O)cc1)C[C@@H]1[C@@]3(C)CC[C@H](OC(=O)c4ccccc4I)CC3=CC[C@]12O
- inhibition (Toll-like receptor 4 [1]): inactive
- inhibition (Toll-like receptor 4 [5]): inactive
- inhibition (Toll-like receptor 4 [2]): inactive
- Activity (AD293 [6]): Toxic

Structure (SMILES): C[C@@H](OC(=O)c1cccnc1)[C@]1(O)CC[C@@]2(O)[C@]1(C)[C@H](OC(=O)/C=C/c1ccccc1)C[C@@H]1[C@@]3(C)CC[C@H](OC(=O)/C=C/c4ccc([N+](=O)[O-])cc4)CC3=CC[C@]12O
- EC10 (Homo sapiens): > 10 µM
- EC50 (Toll-like receptor 4 [3]): 14 µM
- CC10 (AD293 [4]): > 10 µM

Structure (SMILES): C[C@@H](OC(=O)c1cccnc1)[C@]1(O)CC[C@@]2(O)[C@]1(C)[C@H](OC(=O)/C=C/c1ccccc1)C[C@@H]1[C@@]3(C)CC[C@H](OC(=O)c4ccccc4)CC3=CC[C@]12O
- EC10 (Homo sapiens): > 10 µM
- EC50 (Toll-like receptor 4 [3]): 11.1 µM
- CC10 (AD293 [4]): > 10 µM

Structure (SMILES): CC(=O)[C@]1(O)CC[C@@]2(O)[C@]1(C)[C@H](OC(=O)/C=C/c1ccccc1)C[C@@H]1[C@@]3(C)CC[C@H](O)CC3=CC[C@]12O
- inhibition (Toll-like receptor 4 [5]): inactive
- Activity (AD293 [6]): Toxic

Structure (SMILES): CC(=O)[C@]1(O)CC[C@@]2(O)[C@]1(C)[C@H](OC(=O)/C=C(\C)C(C)C)C[C@@H]1[C@@]3(C)CCC(OC(=O)CCl)CC3=CC[C@]12O (stereo partly drawn)
- inhibition (Toll-like receptor 4 [5]): inactive
- Activity (AD293 [6]): Toxic
